The values below come from ChEMBL document CHEMBL1201862, “PubChem BioAssay data set” (2004).

The target in experiment [1] is T1, Protein phosphatase methylesterase 1 (Homo sapiens, UniProt Q9Y570). The experiment is described as follows: Late stage results from the probe development effort to identify inhibitors of the protein methylesterase PME-1: Gel-based Activity-Based Protein Profiling (ABPP) IC50: Purified enzyme. The experiment is classed as functional.
Experiment [2] has as its target T1, Protein phosphatase methylesterase 1. Description: PME-1 inhibitor potency by in-gel ABPP, dose response, selectivity assay for PME-1 inhibitor project, cell lysate, mouse brain cytosol, FP-rhodamine, panel member PME-1 Assay Panel member description: Inhibition of endogenously expressed PME-1 (AID 2366).
In experiment [3] the target is T2, Probable nicotinate-nucleotide adenylyltransferase (Staphylococcus aureus (strain N315), UniProt P65502). The experiment is classed as functional, Staphylococcus aureus subsp. aureus N315. The note with it: read-out: IC50_Mean.
Experiment [4] concerns Streptococcus sp. 'group A'. The experiment is described as follows: growth inhibition of control SK(-) GAS strain, dose response, counter-screen for streptokinase expression inhibitor project, luminescence, kanamycin, BacTiterGlo, confirmation (AID 1900). The experiment is classed as functional, organism-based. On the technique in general: A counterscreen serves to expose hits that act by an unwanted route or on another target.

Experiment [5] concerns the target Beta-galactosidase (Escherichia coli, UniProt Q8VNN2). The experiment is described as follows: beta-galactosidase enzyme inhibitors and activators, dose response, artefact control for CCR6 antagonist project, biochemical, E. coli enzyme, set 3 (AID 504712). The format is functional.
Experiment [6] has as its target Genome polyprotein (dengue virus type 2, UniProt P29990). Description: Dengue-2 NS5 methyltransferase inhibitors, primary screen, biochemical, confirmation dose response (AID 588689). The format is functional.
Experiment [7] has as its target fMet-Leu-Phe receptor (Homo sapiens, UniProt P21462). Description: FPR ligands, dose response (AID 519). The format is functional.
Experiment [8] has as its system Streptococcus. Description: Group A Streptococcus viability loss, dose response, counter-screen for streptokinase expression inhibitor project, luminescence, BacTiterGlo (AID 1915).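 Also: potency for reduction of bacterial viability or growth.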 The experiment is classed as functional, organism-based.
The test system of experiment [9] is Vero. The experiment is described as follows: Vero cell cytotoxicity, cytotoxicity control for flavivirus capping enzyme inhibitors (AID 588742). The format is functional. The settings on record: Chlorocebus sabaeus.
The target of experiment [10] is T3, Fatty acid synthase (Homo sapiens, UniProt P49327). Description: FAS thioesterase domain inhibitors, dose response, biochemical, kinetic fluorescence intensity (AID 624326).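 Also: rate of fluorescence rise from hydrolysis of a fluorogenic O-methyl fluorescein ester substrate.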 The format is functional.
The target of experiment [11] is T2, Probable nicotinate-nucleotide adenylyltransferase. The format is functional, Staphylococcus aureus subsp. aureus N315.
Experiment [12] concerns the target T3, Fatty acid synthase. The experiment is described as follows: FAS thioesterase domain inhibitors, dose response, biochemical, endpoint fluorescence intensity, uHTS hits (AID 624327).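 Also: fluorescence from hydrolysis of an O-methyl fluorescein acyl ester substrate by the enzyme.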 The experiment is classed as functional.
The target in experiment [13] is Metabotropic glutamate receptor 4 (Rattus norvegicus, UniProt P31423). The experiment is described as follows: Modulation of the Metabotropic Glutamate Receptor mGluR4: Rat PAM Potency. [Related pubchem assays (depositor defined):AID2437, AID2807]. The format is functional.
For experiment [14], the target named is Scavenger receptor class B member 1 (Mus musculus, UniProt Q61009). Description: inhibitors of SR-BI mediated HDL lipid uptake, dose response, ldlA[mSR-BI] cells, fluorescence, cherry pick (AID 493194).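 Also: cellular uptake of fluorescent DiI-labeled HDL measured as cell fluorescence.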 The experiment is classed as functional, cell-based.
In experiment [15] the target is Voltage-gated N-type calcium channel alpha-1B subunit/Amyloid beta A4 precursor protein-binding family A member 1 (Homo sapiens, UniProt Q00975+Q02410). The experiment is described as follows: disruptors of Mint-PDZ/N-type channel peptide interaction – biochemical, HTRF, SAR follow-up (AID 2489). The experiment is classed as functional. (In general: Time-resolved FRET reads energy transfer from a long-lived donor to a nearby acceptor.)

For experiment [16], the target named is Melanocortin receptor 4 (Homo sapiens, UniProt P32245). The experiment is classed as functional, cell-based.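 Also: Cell-based assay with luminescence read-out, confirmatory dose-response testing for agonist activity of biased ligands at MC4R; human U2OS cells with tagged receptor and beta-arrestin; potency of agonists that increase receptor coupling to beta-arrestin.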
Experiment [17] has as its target DNA damage-inducible transcript 3 protein (Mus musculus, UniProt P35639). The experiment is classed as functional, Cricetulus griseus.
The target in experiment [18] is T4, Microphthalmia-associated transcription factor (Homo sapiens, UniProt O75030).
T4 sequence (O75030 whole entry): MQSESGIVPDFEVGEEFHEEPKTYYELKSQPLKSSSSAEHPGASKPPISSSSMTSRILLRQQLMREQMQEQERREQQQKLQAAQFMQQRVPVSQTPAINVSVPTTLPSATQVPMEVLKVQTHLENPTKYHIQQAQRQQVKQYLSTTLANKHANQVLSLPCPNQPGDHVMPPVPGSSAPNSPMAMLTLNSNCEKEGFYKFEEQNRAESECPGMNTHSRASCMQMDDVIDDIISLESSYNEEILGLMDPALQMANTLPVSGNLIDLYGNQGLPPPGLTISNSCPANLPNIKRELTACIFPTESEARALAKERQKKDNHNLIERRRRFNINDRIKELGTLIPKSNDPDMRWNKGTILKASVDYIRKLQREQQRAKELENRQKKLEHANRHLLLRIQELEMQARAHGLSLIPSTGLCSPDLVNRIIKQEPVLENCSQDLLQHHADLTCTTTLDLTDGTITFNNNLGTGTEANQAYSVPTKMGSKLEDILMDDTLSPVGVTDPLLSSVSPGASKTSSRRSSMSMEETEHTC
The experiment is described as follows: TRPM1 promoter luciferase signal decrease, dose response, MITF inhibitor project, cell-based, SK-MEL-5, cherry-picked, set 3 (AID 493073).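 Also: SK-MEL-5 melanoma cells with luciferase driven by the MITF target TRPM1 promoter.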 The format is functional.

The source made the active and inactive calls. A value given as a limit tells only on which side of the number the result lay.
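For IC50 Mean in this document: confirmatory dose-response retesting of NadD inhibitor hits first found in an ultra-high-throughput screen.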

T1 sequence (Q9Y570 whole entry): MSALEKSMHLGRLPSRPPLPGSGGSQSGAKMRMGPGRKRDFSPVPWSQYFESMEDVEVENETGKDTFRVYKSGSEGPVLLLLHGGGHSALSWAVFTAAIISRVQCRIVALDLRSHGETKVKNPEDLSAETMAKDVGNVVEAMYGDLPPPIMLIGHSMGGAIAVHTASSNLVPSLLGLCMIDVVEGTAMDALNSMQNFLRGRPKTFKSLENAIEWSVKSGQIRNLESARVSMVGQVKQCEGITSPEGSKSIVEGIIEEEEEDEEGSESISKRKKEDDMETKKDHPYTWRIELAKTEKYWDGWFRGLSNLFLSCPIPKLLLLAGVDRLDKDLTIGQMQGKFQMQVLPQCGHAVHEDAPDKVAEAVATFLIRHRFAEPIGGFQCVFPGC
T3 sequence (P49327 whole entry, the tested form may be a part): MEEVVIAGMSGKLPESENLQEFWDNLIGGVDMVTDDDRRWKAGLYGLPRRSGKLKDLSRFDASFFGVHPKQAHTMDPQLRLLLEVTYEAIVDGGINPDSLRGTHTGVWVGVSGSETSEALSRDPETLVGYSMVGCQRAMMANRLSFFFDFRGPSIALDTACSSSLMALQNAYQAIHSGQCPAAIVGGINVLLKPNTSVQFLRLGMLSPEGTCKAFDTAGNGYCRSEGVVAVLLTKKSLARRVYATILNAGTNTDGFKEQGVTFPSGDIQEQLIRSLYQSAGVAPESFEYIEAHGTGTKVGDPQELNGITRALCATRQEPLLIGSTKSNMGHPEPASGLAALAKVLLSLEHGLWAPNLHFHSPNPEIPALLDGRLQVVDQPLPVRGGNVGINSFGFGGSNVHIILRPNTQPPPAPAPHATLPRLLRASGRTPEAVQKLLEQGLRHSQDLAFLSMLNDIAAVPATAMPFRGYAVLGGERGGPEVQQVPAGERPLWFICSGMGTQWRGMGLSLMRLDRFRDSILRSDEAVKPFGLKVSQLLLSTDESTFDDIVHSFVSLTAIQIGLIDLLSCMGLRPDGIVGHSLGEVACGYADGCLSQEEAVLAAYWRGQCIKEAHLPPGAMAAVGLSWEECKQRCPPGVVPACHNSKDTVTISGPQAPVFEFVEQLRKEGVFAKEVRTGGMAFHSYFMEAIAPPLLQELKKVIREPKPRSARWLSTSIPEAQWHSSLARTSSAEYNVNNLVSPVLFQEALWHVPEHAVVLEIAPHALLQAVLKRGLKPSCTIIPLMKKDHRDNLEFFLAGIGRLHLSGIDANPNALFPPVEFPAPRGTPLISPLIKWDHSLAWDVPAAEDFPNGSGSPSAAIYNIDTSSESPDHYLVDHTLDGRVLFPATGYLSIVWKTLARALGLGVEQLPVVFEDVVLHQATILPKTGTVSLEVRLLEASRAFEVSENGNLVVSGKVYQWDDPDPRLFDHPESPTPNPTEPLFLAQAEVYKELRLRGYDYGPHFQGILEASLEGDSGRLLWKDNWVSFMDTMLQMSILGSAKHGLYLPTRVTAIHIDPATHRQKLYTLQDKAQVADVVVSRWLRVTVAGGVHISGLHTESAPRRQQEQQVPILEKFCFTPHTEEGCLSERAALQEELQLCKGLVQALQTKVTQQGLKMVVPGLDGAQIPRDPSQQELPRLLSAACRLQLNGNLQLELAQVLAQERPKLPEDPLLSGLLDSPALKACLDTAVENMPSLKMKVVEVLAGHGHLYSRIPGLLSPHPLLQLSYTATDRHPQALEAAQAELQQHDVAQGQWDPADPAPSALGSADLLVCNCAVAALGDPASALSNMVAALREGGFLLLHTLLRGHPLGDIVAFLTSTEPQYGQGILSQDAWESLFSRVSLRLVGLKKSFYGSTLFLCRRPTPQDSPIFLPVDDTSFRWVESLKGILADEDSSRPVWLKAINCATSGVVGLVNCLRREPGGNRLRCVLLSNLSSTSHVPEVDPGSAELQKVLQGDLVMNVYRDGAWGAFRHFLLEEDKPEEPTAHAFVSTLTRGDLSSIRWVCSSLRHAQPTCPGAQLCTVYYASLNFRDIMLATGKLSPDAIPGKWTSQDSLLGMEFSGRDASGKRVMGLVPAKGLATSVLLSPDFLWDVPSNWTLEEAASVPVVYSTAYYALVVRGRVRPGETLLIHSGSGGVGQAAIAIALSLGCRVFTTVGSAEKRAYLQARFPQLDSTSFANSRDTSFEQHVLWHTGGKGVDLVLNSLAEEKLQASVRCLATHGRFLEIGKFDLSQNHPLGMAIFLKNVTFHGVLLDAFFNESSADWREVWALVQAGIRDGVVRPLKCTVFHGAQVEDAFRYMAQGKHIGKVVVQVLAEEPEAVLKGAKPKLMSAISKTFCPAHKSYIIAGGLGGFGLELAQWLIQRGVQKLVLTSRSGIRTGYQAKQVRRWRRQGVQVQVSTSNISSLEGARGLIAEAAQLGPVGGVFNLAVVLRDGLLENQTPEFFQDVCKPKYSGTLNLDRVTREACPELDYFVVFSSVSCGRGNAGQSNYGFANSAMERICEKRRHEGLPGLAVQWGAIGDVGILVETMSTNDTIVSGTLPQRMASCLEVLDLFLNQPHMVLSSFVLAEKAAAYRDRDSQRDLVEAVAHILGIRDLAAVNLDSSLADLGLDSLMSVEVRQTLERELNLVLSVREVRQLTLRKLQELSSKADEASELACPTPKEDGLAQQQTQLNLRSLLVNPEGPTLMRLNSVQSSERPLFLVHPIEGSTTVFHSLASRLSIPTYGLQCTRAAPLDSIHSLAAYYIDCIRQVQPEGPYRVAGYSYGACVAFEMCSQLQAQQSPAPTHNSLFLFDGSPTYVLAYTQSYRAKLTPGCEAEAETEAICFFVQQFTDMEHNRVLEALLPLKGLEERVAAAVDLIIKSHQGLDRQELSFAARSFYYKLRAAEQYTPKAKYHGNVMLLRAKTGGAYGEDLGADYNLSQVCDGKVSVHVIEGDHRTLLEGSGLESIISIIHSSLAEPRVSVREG
T2 sequence (P65502 whole entry): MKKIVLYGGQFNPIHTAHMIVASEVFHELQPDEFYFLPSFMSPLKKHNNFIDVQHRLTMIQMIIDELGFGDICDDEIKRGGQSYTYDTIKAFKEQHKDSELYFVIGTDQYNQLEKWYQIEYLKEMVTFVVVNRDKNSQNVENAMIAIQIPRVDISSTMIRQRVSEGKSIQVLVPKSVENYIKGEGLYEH
Sequence of Melanocortin receptor 4 (P32245 whole entry): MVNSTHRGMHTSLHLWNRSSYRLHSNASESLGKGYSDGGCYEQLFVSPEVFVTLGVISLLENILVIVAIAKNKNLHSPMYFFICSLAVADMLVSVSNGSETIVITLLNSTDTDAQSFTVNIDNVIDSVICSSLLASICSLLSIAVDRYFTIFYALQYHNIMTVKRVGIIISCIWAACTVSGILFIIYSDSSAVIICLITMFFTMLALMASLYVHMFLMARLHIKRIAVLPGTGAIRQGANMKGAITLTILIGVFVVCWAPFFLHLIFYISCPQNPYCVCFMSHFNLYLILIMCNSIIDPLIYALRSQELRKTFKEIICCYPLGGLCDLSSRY
Sequence of Genome polyprotein (P29990 2492-3391 limits assumed): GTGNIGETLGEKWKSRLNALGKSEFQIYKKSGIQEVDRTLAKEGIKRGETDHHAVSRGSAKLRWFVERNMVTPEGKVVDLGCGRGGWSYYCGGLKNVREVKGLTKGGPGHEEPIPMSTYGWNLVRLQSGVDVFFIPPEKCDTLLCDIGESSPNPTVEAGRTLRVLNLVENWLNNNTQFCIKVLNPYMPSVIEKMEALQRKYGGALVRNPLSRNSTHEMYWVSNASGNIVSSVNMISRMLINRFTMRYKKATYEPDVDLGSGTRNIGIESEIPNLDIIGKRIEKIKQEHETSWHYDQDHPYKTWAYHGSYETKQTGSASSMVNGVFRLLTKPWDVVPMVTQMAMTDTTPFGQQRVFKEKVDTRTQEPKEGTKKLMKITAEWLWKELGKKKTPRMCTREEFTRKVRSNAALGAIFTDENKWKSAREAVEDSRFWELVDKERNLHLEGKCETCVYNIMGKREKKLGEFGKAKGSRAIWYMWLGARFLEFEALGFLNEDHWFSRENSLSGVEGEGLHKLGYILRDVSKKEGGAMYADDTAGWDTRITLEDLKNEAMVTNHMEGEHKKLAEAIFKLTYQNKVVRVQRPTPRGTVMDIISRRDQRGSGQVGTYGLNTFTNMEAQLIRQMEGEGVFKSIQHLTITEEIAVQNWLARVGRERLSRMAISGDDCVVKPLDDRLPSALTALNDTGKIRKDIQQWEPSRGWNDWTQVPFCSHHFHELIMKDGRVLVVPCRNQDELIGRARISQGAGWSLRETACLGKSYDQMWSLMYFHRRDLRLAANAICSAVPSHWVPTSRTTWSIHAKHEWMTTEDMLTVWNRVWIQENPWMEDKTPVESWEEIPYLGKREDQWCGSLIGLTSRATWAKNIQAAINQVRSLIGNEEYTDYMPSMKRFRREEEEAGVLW
Sequence of DNA damage-inducible transcript 3 protein (P35639 whole entry): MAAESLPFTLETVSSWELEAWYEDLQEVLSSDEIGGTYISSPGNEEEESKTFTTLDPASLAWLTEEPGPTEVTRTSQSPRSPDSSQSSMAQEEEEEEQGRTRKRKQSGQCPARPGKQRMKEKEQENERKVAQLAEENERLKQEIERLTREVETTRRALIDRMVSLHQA
Sequence of fMet-Leu-Phe receptor (P21462 whole entry): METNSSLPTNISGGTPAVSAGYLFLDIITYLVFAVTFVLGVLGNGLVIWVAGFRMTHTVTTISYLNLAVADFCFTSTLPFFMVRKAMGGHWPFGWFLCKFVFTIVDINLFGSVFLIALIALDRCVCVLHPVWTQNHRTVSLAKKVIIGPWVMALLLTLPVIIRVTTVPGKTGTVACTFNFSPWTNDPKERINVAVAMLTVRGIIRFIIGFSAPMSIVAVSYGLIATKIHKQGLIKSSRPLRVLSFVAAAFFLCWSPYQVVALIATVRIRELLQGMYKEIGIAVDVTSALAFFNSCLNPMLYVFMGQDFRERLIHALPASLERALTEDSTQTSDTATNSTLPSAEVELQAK

With `CS(=O)(=O)C(=Cc1cccn1S(=O)(=O)c1ccccc1)S(C)(=O)=O`, the IC50 in experiment [1] was > 20 µM (not active); in experiment [2], > 20 µM (inactive).

With `Cc1nn2c(O)cc(-c3ccc([N+](=O)[O-])cc3)nc2c1-c1ccccc1`, the IC50 was 30.2 µM (active) in experiment [3]; > 66.6 µM (inactive) in [5]; 36.5 µM (active) in experiment [6]; 6.29 µM (active) in experiment [10]; 8.02 µM (active) in experiment [11]; 11.2 µM (active) in [12]. Besides, the figures for the EC50 in [4] and in experiment [8] were 0.662 µM (active) and 1.44 µM (active), respectively. Besides, in [7], the Ki was > 66.7 µM (inactive). Besides, the CC50 in experiment [9] was 29.6 µM (active).

For the molecule `O=C(Nc1ccc(NC(=O)c2ccccc2Cl)c(Cl)c1)c1ccccn1`, the EC50 in experiment [13] is 0.75 µM (active).

As for `COc1cc(OC)cc(C(=O)Nc2cccc(NC(=O)c3cc(OC)cc(OC)c3)n2)c1`, in experiment [14], the AC50 was 45.9 µM (active).

For the molecule `CCOC(=O)N1CCN(C(=O)c2ccc3nc(-c4ccco4)c(-c4ccco4)nc3c2)CC1`, the IC50 in [15] is 42.5 µM (active).

As for `COc1cc(NC(=O)COc2ccccc2[N+](=O)[O-])ccc1NC(=O)c1cccs1`, the EC50 in experiment [16] is > 89.2 µM (inactive). In experiment [17], the “Absolute IC50 (CHOP)” value is 10 µM. The AC50 in [18] was 10.1 µM (active).

The EC50 is the concentration that produces a half-maximal response. For orientation: Ki means a dissociation constant, usually derived from enzyme kinetics or from competition with a known ligand. A word on the CC50: it is the concentration that lowers cell viability or growth by half. Broadly, the AC50 is the midpoint of the concentration-response curve, whichever way the signal moves.
